Data as given in PubChem BioAssay (NCI).
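Interpolation was linear, between the two tested concentrations surrounding the appropriate level; five concentrations were tested over 48 hours in 96-well plates. TGI denotes the concentration required for complete inhibition of growth.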

Columns and labels:
Assay in all cases: inhibition of tumour cell growth, NCI panel, 48 h
[1] = system: UACC-257 melanoma
[2] = system: SF-268 CNS
[3] = system: RXF 393 renal
[4] = system: OVCAR-5 ovarian
[5] = system: MOLT-4 leukemia
[6] = system: A498 renal
[7] = system: LOX IMVI melanoma
[8] = system: HCT-15 colon
[9] = system: RPMI-8226 leukemia
[10] = system: PC-3 prostate
[11] = system: BT-549 breast
[12] = system: SW-620 colon
[13] = system: OVCAR-4 ovarian
[14] = system: OVCAR-8 ovarian
[15] = system: SN12C renal
[16] = system: DU-145 prostate
[17] = system: SK-OV-3 ovarian
[18] = system: MDA-N

Compound | TGI [1] [µM] | TGI [2] [µM] | TGI [3] [µM] | TGI [4] [µM] | TGI [5] [µM] | TGI [6] [µM] | TGI [7] [µM] | TGI [8] [µM] | TGI [9] [µM] | TGI [10] [µM] | TGI [11] [µM] | TGI [12] [µM] | TGI [13] [µM] | TGI [14] [µM] | TGI [15] [µM] | TGI [16] [µM] | TGI [17] [µM] | TGI [18] [µM]
CCOCCOCCOCc1nc(C#N)c(N)o1 | > 100 | > 100 | > 100 | > 100 | > 100 | > 100 | > 100 | > 100 | > 100 | > 100 | > 100 | > 100 | > 100 | > 100 | > 100 | > 100 | > 100 | –
CC(C)CC(NC(=O)C(C)(CI)Cc1ccccc1)C(=O)Nc1ccccc1 (stereo not given) | > 100 | – | > 100 | > 100 | > 100 | > 100 | > 100 | > 100 | > 100 | > 100 | – | > 100 | > 100 | > 100 | > 100 | > 100 | > 100 | > 100
COc1cccc2c1c1ccc3c(c1n2C)C(=O)C=CC3=O | 30.3 | 33.6 | – | > 100 | 8.65 | > 100 | 32.2 | 31.8 | 11.6 | – | – | 24.7 | 31.8 | 29.7 | 41.5 | – | > 100 | –
Cc1ccc(O)c(Cc2nc3ccccc3nc2-c2cccc(Cl)c2)c1 | > 100 | > 100 | > 100 | > 100 | 51.4 | – | > 100 | 46.1 | 79.4 | > 100 | > 100 | > 100 | 65.8 | > 100 | > 100 | > 100 | > 100 | > 100
O=C1/C(=C/c2cccc(Cl)c2)CCCc2ccccc21 | 46.5 | 33.4 | – | 31.2 | 53.7 | – | 32.8 | 39.2 | 42.5 | 38.3 | 44.5 | 33.9 | 31.4 | 33.6 | 32.3 | 40.2 | > 100 | 31.9
N#Cc1ccc(C(O)C(F)(F)c2nc3ccccc3o2)cc1 (stereo not given) | > 100 | > 100 | > 100 | – | > 100 | – | > 100 | > 100 | > 100 | > 100 | > 100 | > 100 | > 100 | > 100 | – | > 100 | > 100 | –
COc1cc(/C=C2\C(=O)N(C(=O)Cc3ccccc3)N=C2C)cc(OC)c1OC | > 100 | > 100 | – | > 100 | > 100 | – | > 100 | > 100 | > 100 | – | – | > 100 | > 100 | > 100 | > 100 | – | – | –
CC1=NN(c2nc(N)nc(CN3CCOCC3)n2)C(C)(C)C1 | > 100 | > 100 | > 100 | > 100 | > 100 | > 100 | 28.5 | > 100 | > 100 | > 100 | > 100 | > 100 | 45.7 | > 100 | > 100 | > 100 | > 100 | –
CCOC(=O)Cc1csc(NC(NC(=O)OCC)(C(=O)OCC)C(F)(F)F)n1 (stereo not given) | > 100 | > 100 | > 100 | > 100 | > 100 | > 100 | > 100 | > 100 | > 100 | > 100 | – | > 100 | > 100 | > 100 | > 100 | > 100 | > 100 | > 100
C=C(C)C12CC3CC(/C(=N/O)C(C1)/C3=N\O)[C@@]2(C)O (stereo not given in full) | > 100 | > 100 | > 100 | > 100 | > 100 | – | > 100 | > 100 | > 100 | – | – | > 100 | – | > 100 | > 100 | – | > 100 | –
CC1=C(C#N)C(=C(C#N)C#N)OC1(C)Cc1ccccc1 (stereo not given) | > 100 | > 100 | 37.6 | > 100 | 67.3 | > 100 | 41 | 83 | 96.8 | > 100 | > 100 | > 100 | 60.3 | > 100 | > 100 | > 100 | > 100 | –
Cc1ccc2c(c1)SC1=Nc3sc4cc(C)ccc4[n+]3CN12 | 12.8 | > 100 | > 100 | > 100 | – | 87.1 | > 100 | > 100 | 6.17 | > 100 | 18.3 | 53.1 | 29.6 | 18.8 | 56.2 | > 100 | > 100 | –
O=C(O)c1ccccc1C(=O)NCC1S(=O)(=O)OCCOS1(=O)=O | > 100 | > 100 | > 100 | > 100 | > 100 | > 100 | > 100 | > 100 | > 100 | > 100 | – | > 100 | > 100 | > 100 | > 100 | > 100 | > 100 | > 100
OC12c3ccccc3C1CCCCC2N1CCCC1 (stereo not given) | > 100 | > 100 | > 100 | – | > 100 | – | > 100 | > 100 | > 100 | – | – | > 100 | > 100 | > 100 | > 100 | – | > 100 | –
COc1cc(OC)cc(OCc2nc3cc(C(F)(F)F)ccc3nc2-c2ccccc2)c1 | > 100 | > 100 | > 100 | > 100 | > 100 | – | > 100 | > 100 | > 100 | > 100 | > 100 | > 100 | > 100 | > 100 | > 100 | > 100 | > 100 | > 100
N#C/C(=C\c1ccc(F)cc1)c1nc(-c2cc3ccccc3oc2=O)cs1 | 65.9 | 46.2 | 64.2 | > 100 | > 100 | – | > 100 | > 100 | > 100 | > 100 | 24.8 | > 100 | > 100 | 71.9 | > 100 | > 100 | 67.5 | > 100
COc1ccc(N=c2oc3ccccc3cc2C(N)=O)cc1 | > 100 | 42.6 | > 100 | – | > 100 | – | > 100 | > 100 | > 100 | > 100 | > 100 | > 100 | – | > 100 | > 100 | > 100 | 47.7 | > 100
CC1CC(N)=C(C#N)C1(C#N)C#N (stereo not given) | > 100 | > 100 | > 100 | > 100 | > 100 | > 100 | > 100 | > 100 | > 100 | > 100 | – | > 100 | – | > 100 | > 100 | > 100 | > 100 | > 100
O=C(Nc1ccc(C(F)(F)F)cc1)NC(F)(F)F | > 100 | > 100 | > 100 | > 100 | > 100 | > 100 | > 100 | > 100 | > 100 | > 100 | > 100 | > 100 | – | > 100 | > 100 | – | > 100 | > 100
O=C1/C(=C\c2ccc(Cl)cc2)N=C(c2ccccc2)N1n1c(=O)cn[nH]c1=S | > 100 | – | – | > 100 | 53.3 | > 100 | 65.3 | 69.5 | 62.1 | > 100 | 92.3 | 44.4 | 69 | 45.8 | – | 58.3 | > 100 | > 100
CC1=NN(c2cccc(Cl)c2)C2(SCC(=O)N2c2nc3ccccc3s2)C1=CC=Cc1ccccc1 (stereo not given) | > 100 | 93.5 | 64.1 | > 100 | 87.5 | 61.9 | > 100 | > 100 | > 100 | > 100 | – | > 100 | > 100 | > 100 | – | 68.6 | 68.5 | > 100
COc1ccc(CNc2cnc3cc(N)ccc3n2)cc1 | – | > 100 | > 100 | > 100 | > 100 | – | > 100 | > 100 | > 100 | – | – | > 100 | > 100 | > 100 | > 100 | – | – | –
C=CCOC(=O)CC[C@H](NC(=O)[C@@H](CCC(F)(F)F)Cc1ccc(O)cc1)C(=O)OCC=C | – | > 100 | > 100 | > 100 | 79.8 | – | > 100 | > 100 | 74.6 | – | > 100 | > 100 | > 100 | > 100 | > 100 | – | > 100 | > 100
N#CC12C(=O)NC(=O)C1(C#N)C1C=CC2CC1 (stereo not given) | > 100 | > 100 | > 100 | > 100 | > 100 | – | > 100 | > 100 | > 100 | > 100 | > 100 | > 100 | > 100 | > 100 | > 100 | > 100 | > 100 | > 100
c1csc(-c2nn3c(C45CC6CC(CC(C6)C4)C5)nnc3s2)c1 | > 100 | > 100 | > 100 | > 100 | > 100 | > 100 | > 100 | > 100 | > 100 | > 100 | – | > 100 | > 100 | > 100 | > 100 | > 100 | > 100 | > 100
O=c1nc2n3c4c(cccc4nc-2c(=O)[nH]1)CCC3 | > 100 | > 100 | > 100 | > 100 | > 100 | – | > 100 | > 100 | > 100 | > 100 | > 100 | > 100 | > 100 | > 100 | > 100 | > 100 | > 100 | > 100
CC(=O)Nc1ccc2c3c(cc(O)c2c1)N(C(=O)CCCC(=O)N1CC(CCl)c2c1cc(O)c1cc(NC(C)=O)ccc21)CC3CCl (stereo not given) | – | – | < 0.01 | 0.276 | – | – | > 100 | 11.5 | 0.0182 | 0.421 | 0.306 | > 100 | 0.64 | > 100 | > 100 | < 0.01 | > 24.6 | –
O=c1oc2ccc3ccccc3c2cc1-c1nnc(Nc2ccccc2)s1 | > 100 | > 100 | 29.7 | > 100 | > 100 | 22.4 | – | > 100 | 50.9 | 36.6 | > 100 | – | 38.8 | – | > 100 | 55.5 | – | –
COC(=O)CCC(=O)c1ccc2c(c1)CCC2 | > 100 | > 100 | > 100 | > 100 | > 100 | > 100 | > 100 | > 100 | > 100 | > 100 | – | > 100 | > 100 | > 100 | – | > 100 | > 100 | > 100
Cc1c(C)c2ccc(OCC(O)COC(C)C)c(C)c2oc1=O (stereo not given) | 43.4 | > 100 | – | > 100 | > 10 | – | 42.2 | – | 44.4 | > 100 | – | 93.1 | > 10 | > 100 | – | > 100 | > 100 | 33
